Experimental data: patent US20230085307A1, “PYRIDAZINONE COMPOUND AND HERBICIDE” (NISSAN CHEMICAL CORPORATION, priority 2019, published 2023)

Assays:
Japanese bulrush [1] = assay: Test Example 1: herbicidal activity, application before weed generation under submerged conditions (Table 16, symbol B); format: in vivo, Japanese bulrush (Schoenoplectus juncoides); details: amount of applied herbicide 320 g/ha
Method in brief: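 Submerged Wagner pots (alluvial soil, 4 cm water) sown with weed seeds and planted with 2.5-leaf rice seedlings; emulsifiable concentrate diluted in water applied to water surface on sowing day. Held in greenhouse at 25-30 °C; injury scored 0-5 by herbicidal rate after three weeks.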

late watergrass = assay: Test Example 2: herbicidal activity, application during weed generation under submerged conditions (Table 17, symbol A); format: in vivo, late watergrass (Echinochloa oryzicola); details: AAH 320 g/ha; application during weed generation, submerged conditions
Method in brief: (§1)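 Alluvial soil in Wagner pots was flooded to 4 cm depth and sown with the three weeds together; pots were kept in a greenhouse at 25° C. to 30° C. At the one to two leaf stage, an emulsion formulation diluted in water to a set rate went onto the water surface; scored three weeks later.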

Japanese bulrush [2] = assay: Test Example 2: herbicidal activity, application during weed generation under submerged conditions (Table 17, symbol B); format: in vivo, Japanese bulrush (Schoenoplectus juncoides); details: AAH 320 g/ha; application during weed generation, submerged conditions
Method in brief: as §1

oval-leafed pondweed = assay: Test Example 2: herbicidal activity, application during weed generation under submerged conditions (Table 17, symbol C); format: in vivo, oval-leafed pondweed (Monochoria vaginalis); details: AAH 320 g/ha; application during weed generation, submerged conditions
Method in brief: as §1

rice flat sedge = assay: Test Example 3: herbicidal effect by foliage application, Wagner pot (Table 18, symbol E); format: in vivo, rice flat sedge (Cyperus iria); details: for Herbicidal effect on E (rice flat sedge), foliage application: amount of applied herbicide 320 g/ha
Method in brief: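 Plants were sown in alluvial soil held under 0.1–0.5 cm standing water and grown 14 days in a greenhouse at 25–30 °C. An emulsifiable formulation, water-diluted to the set dose, was then sprayed onto the foliage, and effects were scored three weeks later using previously defined criteria.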

southern crabgrass = assay: Test Example 4: herbicidal effect by soil treatment (Table 19, symbol F); format: in vivo, southern crabgrass (Digitaria ciliaris); details: amount of applied herbicide 320 g/ha
Method in brief: (§2)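 In this soil treatment, the formulated compound reached the seeds only through the soil: seeds were buried about 1.5 cm deep in sterilized diluvial soil, then the diluted emulsion was sprayed over the surface. After three weeks at 25° C. to 30° C. in a greenhouse, effects were graded on criteria from an earlier test.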

green foxtail = assay: Test Example 4: herbicidal effect by soil treatment (Table 19, symbol G); format: in vivo, green foxtail (Setaria viridis); details: amount of applied herbicide 320 g/ha
Method in brief: as §2

wild oat [3] = assay: Test Example 4: herbicidal effect by soil treatment (Table 19, symbol I); format: in vivo, wild oat (Avena fatua); details: amount of applied herbicide 320 g/ha
Method in brief: as §2

blackgrass [4] = assay: Test Example 4: herbicidal effect by soil treatment (Table 19, symbol J); format: in vivo, blackgrass (Alopecurus myosuroides); details: amount of applied herbicide 320 g/ha
Method in brief: as §2

velvetleaf = assay: Test Example 4: herbicidal effect by soil treatment (Table 19, symbol M); format: in vivo, velvetleaf (Abutilon theophrasti); details: amount of applied herbicide 320 g/ha
Method in brief: as §2

redroot pigweed = assay: Test Example 4: herbicidal effect by soil treatment (Table 19, symbol N); format: in vivo, redroot pigweed (Amaranthus retroflexus); details: amount of applied herbicide 320 g/ha
Method in brief: as §2

chickweed = assay: Test Example 4: herbicidal effect by soil treatment (Table 19, symbol P); format: in vivo, common chickweed (Stellaria media); details: amount of applied herbicide 320 g/ha
Method in brief: as §2

barnyard grass = assay: Test Example 5: herbicidal effect by foliage application, plastic box (Table 20, symbol H); format: in vivo, barnyard grass (Echinochloa crus-galli); details: foliage application, 320 g/ha, three weeks after application
Method in brief: (§3)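 Plants were sown into sterilized diluvial soil under about 1.5 cm cover and kept in a greenhouse at 25° C. to 30° C. Fourteen days on, foliage received an even spray of the diluted emulsion. Herbicidal or crop effect was judged three weeks afterwards.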

wild oat [5] = assay: Test Example 5: herbicidal effect by foliage application, plastic box (Table 20, symbol I); format: in vivo, wild oat (Avena fatua); details: foliage application, 320 g/ha, three weeks after application
Method in brief: as §3

blackgrass [6] = assay: Test Example 5: herbicidal effect by foliage application, plastic box (Table 20, symbol J); format: in vivo, blackgrass (Alopecurus myosuroides); details: foliage application, 320 g/ha, three weeks after application
Method in brief: as §3

Compound | Herbicidal effect, B: Japanese bulrush (Japanese bulrush [1]) | herbicidal effect rating, A: late watergrass (late watergrass) | herbicidal effect rating, B: Japanese bulrush (Japanese bulrush [2]) | herbicidal effect rating, C: oval-leafed pondweed (oval-leafed pondweed) | herbicidal effect on rice flat sedge (E) (rice flat sedge; 320 g/ha) | F: southern crabgrass, herbicidal effect grade (southern crabgrass) | G: green foxtail, herbicidal effect grade (green foxtail) | I: wild oat, herbicidal effect grade (wild oat [3]) | J: blackgrass, herbicidal effect grade (blackgrass [4]) | M: velvetleaf, herbicidal effect grade (velvetleaf) | N: redroot pigweed, herbicidal effect grade (redroot pigweed) | P: chickweed, herbicidal effect grade (chickweed) | herbicidal effect on barnyard grass (H) (barnyard grass) | herbicidal effect on wild oat (I) (wild oat [5]) | herbicidal effect on blackgrass (J) (blackgrass [6]) | Herbicidal effect on E (rice flat sedge), foliage application (rice flat sedge)
CCOc1cc(F)ccc1-c1sc2cc(C)c(C)cc2c1-c1c(O)c(C)nn(C)c1=O [5-103] | 4 (Herbicidal rate of 70% or more and less than 90%) | 2 (Herbicidal rate of 20% or more and less than 40%) | 3 (Herbicidal rate of 40% or more and less than 70%) | 3 (Herbicidal rate of 40% or more and less than 70%) | 5 (Herbicidal rate of 90% or more (almost completely withered)) | 4 (Herbicidal rate of 70% or more and less than 90%) | 3 (Herbicidal rate of 40% or more and less than 70%) | 0 (Herbicidal rate of 5% or less (almost no effect)) | 0 (Herbicidal rate of 5% or less (almost no effect)) | 1 (Herbicidal rate of 5% or more and less than 20%) | 2 (Herbicidal rate of 20% or more and less than 40%) | 3 (Herbicidal rate of 40% or more and less than 70%) | 5 (Herbicidal rate of 90% or more (almost completely withered)) | 4 (Herbicidal rate of 70% or more and less than 90%) | 4 (Herbicidal rate of 70% or more and less than 90%) | –
CCOc1ccc2c(-c3c(O)c(C)nn(C)c3=O)c(-c3ccccc3OC)sc2c1Cl [7-003] | 3 (Herbicidal rate of 40% or more and less than 70%) | 0 (Herbicidal rate of 5% or less (almost no effect)) | 3 (Herbicidal rate of 40% or more and less than 70%) | 0 (Herbicidal rate of 5% or less (almost no effect)) | – | 0 (Herbicidal rate of 5% or less (almost no effect)) | 0 (Herbicidal rate of 5% or less (almost no effect)) | 0 (Herbicidal rate of 5% or less (almost no effect)) | 0 (Herbicidal rate of 5% or less (almost no effect)) | 3 (Herbicidal rate of 40% or more and less than 70%) | 5 (Herbicidal rate of 90% or more (almost completely withered)) | 4 (Herbicidal rate of 70% or more and less than 90%) | 2 (Herbicidal rate of 20% or more and less than 40%) | 0 (Herbicidal rate of 5% or less (almost no effect)) | 4 (Herbicidal rate of 70% or more and less than 90%) | 5 (Herbicidal rate of 90% or more (almost completely withered))
CCOc1ccccc1-c1sc2c(Cl)c(OCC)ccc2c1-c1c(O)c(C)nn(C)c1=O [7-004] | 3 (Herbicidal rate of 40% or more and less than 70%) | 3 (Herbicidal rate of 40% or more and less than 70%) | 3 (Herbicidal rate of 40% or more and less than 70%) | 2 (Herbicidal rate of 20% or more and less than 40%) | – | 3 (Herbicidal rate of 40% or more and less than 70%) | 5 (Herbicidal rate of 90% or more (almost completely withered)) | 0 (Herbicidal rate of 5% or less (almost no effect)) | 0 (Herbicidal rate of 5% or less (almost no effect)) | 3 (Herbicidal rate of 40% or more and less than 70%) | 4 (Herbicidal rate of 70% or more and less than 90%) | 4 (Herbicidal rate of 70% or more and less than 90%) | 5 (Herbicidal rate of 90% or more (almost completely withered)) | 0 (Herbicidal rate of 5% or less (almost no effect)) | 5 (Herbicidal rate of 90% or more (almost completely withered)) | 5 (Herbicidal rate of 90% or more (almost completely withered))
Cc1nn(C)c(=O)c(-c2c(-c3ccc(OCC(F)(F)F)cc3)oc3ccccc23)c1O [8-005] | 5 (Herbicidal rate of 90% or more (almost completely withered)) | 4 (Herbicidal rate of 70% or more and less than 90%) | 3 (Herbicidal rate of 40% or more and less than 70%) | 3 (Herbicidal rate of 40% or more and less than 70%) | – | 4 (Herbicidal rate of 70% or more and less than 90%) | 4 (Herbicidal rate of 70% or more and less than 90%) | 0 (Herbicidal rate of 5% or less (almost no effect)) | 3 (Herbicidal rate of 40% or more and less than 70%) | 3 (Herbicidal rate of 40% or more and less than 70%) | 5 (Herbicidal rate of 90% or more (almost completely withered)) | 2 (Herbicidal rate of 20% or more and less than 40%) | 5 (Herbicidal rate of 90% or more (almost completely withered)) | 0 (Herbicidal rate of 5% or less (almost no effect)) | 4 (Herbicidal rate of 70% or more and less than 90%) | 4 (Herbicidal rate of 70% or more and less than 90%)
CSCCOc1ccc(-c2oc3ccccc3c2-c2c(O)c(C)nn(C)c2=O)cc1 [8-008] | 5 (Herbicidal rate of 90% or more (almost completely withered)) | 2 (Herbicidal rate of 20% or more and less than 40%) | 3 (Herbicidal rate of 40% or more and less than 70%) | 2 (Herbicidal rate of 20% or more and less than 40%) | – | 3 (Herbicidal rate of 40% or more and less than 70%) | 1 (Herbicidal rate of 5% or more and less than 20%) | 0 (Herbicidal rate of 5% or less (almost no effect)) | 0 (Herbicidal rate of 5% or less (almost no effect)) | 2 (Herbicidal rate of 20% or more and less than 40%) | 4 (Herbicidal rate of 70% or more and less than 90%) | 5 (Herbicidal rate of 90% or more (almost completely withered)) | 5 (Herbicidal rate of 90% or more (almost completely withered)) | 5 (Herbicidal rate of 90% or more (almost completely withered)) | 5 (Herbicidal rate of 90% or more (almost completely withered)) | 4 (Herbicidal rate of 70% or more and less than 90%)
COc1ccc(-c2oc3ccc(Cl)cc3c2-c2c(O)c(C)nn(C)c2=O)cc1 [9-002] | 3 (Herbicidal rate of 40% or more and less than 70%) | 0 (Herbicidal rate of 5% or less (almost no effect)) | 0 (Herbicidal rate of 5% or less (almost no effect)) | 3 (Herbicidal rate of 40% or more and less than 70%) | – | 2 (Herbicidal rate of 20% or more and less than 40%) | 1 (Herbicidal rate of 5% or more and less than 20%) | 0 (Herbicidal rate of 5% or less (almost no effect)) | 1 (Herbicidal rate of 5% or more and less than 20%) | 2 (Herbicidal rate of 20% or more and less than 40%) | 4 (Herbicidal rate of 70% or more and less than 90%) | 4 (Herbicidal rate of 70% or more and less than 90%) | 0 (Herbicidal rate of 5% or less (almost no effect)) | 0 (Herbicidal rate of 5% or less (almost no effect)) | 0 (Herbicidal rate of 5% or less (almost no effect)) | 2 (Herbicidal rate of 20% or more and less than 40%)
